# Reference: ChEMBL document CHEMBL6153039, “Synthesis and structural modification of the natural product Ivesinol to discover novel autophagy activators” (Eur J Med Chem, 2025)
# The source made the active and inactive calls. The calls are words filed in the database; no cut-off is given here.
# Experiments:
# MCF7 [1] = assay: Induction of autophagy in human MCF7 cells assessed as upregulation of LC3-II to LC3-I ratio at 20 uM incubated for 4 hrs by Western blotting analysis; assay type: functional, cell-based
# MCF7 [2] = assay: Induction of autophagy in human MCF7 cells assessed as p62/GAPDH ratio (reference value: 0.96); assay type: functional
# HEK293 [3] = assay: Inhibition of autophagy in HEK293 cells assessed as increase in LC3-II protein level incubated for 4 hrs by Western blotting analysis; assay type: functional, cell-based; details: Homo sapiens, dose 0.1-2 µM
# HEK293 [4] = assay: Inhibition of autophagy in HEK293 cells assessed as increase in p62 protein level incubated for 4 hrs by Western blotting analysis; assay type: functional, cell-based; details: Homo sapiens, dose 0.1-2 µM
# HEK293 [5] = assay: Inhibition of autophagy in HEK293 cells assessed as increase in LC3-I protein level incubated for 4 hrs by Western blotting analysis; assay type: functional, cell-based; details: Homo sapiens, dose 0.1-2 µM
# MCF7 [6] = assay: Inhibition of autophagy in human MCF7 cells assessed as increase in LC3-II protein level incubated for 4 hrs by Western blotting analysis; assay type: functional, cell-based; details: dose 0.1-2 µM
# MCF7 [7] = assay: Inhibition of autophagy in human MCF7 cells assessed as increase in p62 protein level incubated for 4 hrs by Western blotting analysis; assay type: functional, cell-based; details: dose 0.1-2 µM
# MCF7 [8] = assay: Inhibition of autophagy in human MCF7 cells assessed as increase in LC3-I protein level incubated for 4 hrs by Western blotting analysis; assay type: functional, cell-based; details: dose 0.1-2 µM
# MCF7 [9] = assay: Induction of autophagy in human MCF7 cells assessed as p62/GAPDH ratio (reference value: 1.20); assay type: functional
# L02 = assay: Cytotoxicity against human LO2 cells assessed as reduction in cell viability at 0.3125 to 40 uM incubated for 24 hrs by MTT assay; assay type: toxicity, cell-based; details: l02, 24 h, dose 0.3125-40 µM
# MCF7 [10] = assay: Induction of autophagy in human MCF7 cells expressing pEGFP-LC3 assessed as increase in LC3 puncta at 20 uM incubated for 4 hrs by fluorescence microscopic analysis; assay type: functional, cell-based
# MCF7 [11] = assay: Induction of autophagy in wild type human MCF7 cells assessed as increase in LC3-II level at 20 uM incubated for 4 hrs by Western blotting analysis; assay type: functional, cell-based
# MCF7 [12] = assay: Induction of autophagy in wild type human MCF7 cells assessed as decrease in LC3-I level at 20 uM incubated for 4 hrs by Western blotting analysis; assay type: functional, cell-based
# MCF7 [13] = assay: Induction of autophagy in human MCF7 cells assessed as increase in LC3-II/LC3-1 rate at 20 uM incubated for 4 hrs by Western blotting analysis; assay type: functional, cell-based
# HEK293 [14] = assay: Induction of autophagy in HEK293 cells assessed as decrease in p62 protein level incubated for 4 hrs by Western blotting analysis; assay type: functional, cell-based; details: Homo sapiens, dose 0.5-10 µM
# MCF7 [15] = assay: Induction of autophagy in human […] cells assessed as decrease in p62 protein level incubated for 4 hrs by Western blotting analysis; assay type: functional, cell-based; details: dose 0.5-10 µM
# HEK293 [16] = assay: Induction of autophagy in HEK293 cells assessed as increase in LC3-II protein level incubated for 4 hrs by Western blotting analysis; assay type: functional, cell-based; details: Homo sapiens, dose 0.5-10 µM
# MCF7 [17] = assay: Induction of autophagy in human […] cells increase in LC3-II protein level incubated for 4 hrs by Western blotting analysis; assay type: functional, cell-based; details: dose 0.5-10 µM
# MCF7 [18] = assay: Induction of autophagy in wild type human MCF7 cells assessed as increase in LC3-II level at 10 uM incubated for 1 to 4 hrs by Western blotting analysis; assay type: functional, cell-based; details: time 1-4 hrs
# MCF7 [19] = assay: Induction of autophagy in wild type human MCF7 cells assessed as decrease in p62 level at 10 uM incubated for 1 to 4 hrs by Western blotting analysis; assay type: functional, cell-based; details: time 1-4 hrs
# MCF7 [20] = assay: Induction of autophagy in wild type human MCF7 cells assessed as increase in LC3-II level at 10 uM incubated for 6 to 8 hrs by Western blotting analysis; assay type: functional, cell-based; details: time 6-8 hrs
# BEAS-2B = assay: Cytotoxicity against human BEAS-2B cells assessed as reduction in cell viability at 0.3125 to 40 uM incubated for 24 hrs by MTT assay; assay type: toxicity, cell-based; details: dose 0.3125-40 µM
# MCF7 [21] = assay: Cytotoxicity against human MCF7 cells assessed as reduction in cell viability at 0.3125 to 40 uM incubated for 24 hrs by MTT assay; assay type: functional, cell-based; details: dose 0.3125-40 µM
# MCF7 [22] = assay: Induction of autophagy in human MCF7 cells assessed as decrease in p62 level at 20 uM incubated for 4 hrs by Western blotting analysis; assay type: functional, cell-based
# MCF7 [23] = assay: Induction of autophagic flux in wild type human MCF7 cells assessed as increase in LC3-II protein level at 10 uM incubated for 4 hrs in the presence of bafilomycin A1 by Western blotting analysis; assay type: functional, cell-based
# MCF7 [24] = assay: Induction of autophagic flux in wild type human MCF7 cells assessed as increase in LC3-I protein level at 10 uM incubated for 4 hrs in the presence of bafilomycin A1 by Western blotting analysis; assay type: functional, cell-based
# MCF7 [25] = assay: Induction of autophagic flux in wild type human MCF7 cells assessed as increase in p62 protein level at 10 uM incubated for 4 hrs in the presence of bafilomycin A1 by Western blotting analysis; assay type: functional, cell-based
# MCF7 [26] = assay: Induction of autophagy in pEGFP-LC3-labeled human MCF7 cells assessed as formation of autophagosome by measuring the appearance of clustered granules near the nucleus at 10 uM by laser confocal microscopic imaging analysis; assay type: functional, cell-based; details: time 1-8 hrs
# [27] = Cytotoxicity against human […] cells assessed as reduction in cell viability at 0.3125 to 40 uM incubated for 24 hrs by MTT assay; assay type: toxicity, cell-based; details: dose 0.3125-40 µM
structure (smiles),measurement,setting,value
CCCCC(=O)c1c(O)c(C)c(O)c(Cc2c(O)c(C)c(O)c(C(=O)CCCC)c2OC)c1OC,Activity,MCF7 [1],Active
same,Ratio,MCF7 [2],0.84
CCC(=O)c1c(O)c(Cc2c(O)c(C(=O)CC)c(O)c(C(=O)CC)c2O)c(O)c(C(=O)CC)c1O,inhibition,HEK293 [3],Dose-dependent-effect
same,inhibition,HEK293 [4],Dose-dependent-effect
same,inhibition,HEK293 [5],Dose-dependent-effect
same,inhibition,MCF7 [6],Dose-dependent-effect
same,inhibition,MCF7 [7],Dose-dependent-effect
same,inhibition,MCF7 [8],Dose-dependent-effect
COc1c(C)c(O)c(C(C)=O)c(O)c1Cc1c(O)c(C(=O)C(C)C)c(O)c(C)c1OC,Activity,MCF7 [1],Active
same,Ratio,MCF7 [9],0.84
COc1c(C)c(O)c(C(=O)C(C)C)c(O)c1Cc1c(O)c(C(=O)C(C)C)c(O)c(C)c1OC,Activity,L02,Toxic
same,Activity,MCF7 [10],Active; Higher Activity Observed
same,Activity,MCF7 [11],Active
same,Activity,MCF7 [12],Active
same,Activity,MCF7 [13],Active
same,Activity,MCF7 [1],Active
same,Ratio,MCF7 [2],0.73
same,Activity,HEK293 [14],Dose-dependent-effect
same,Activity,MCF7 [15],Dose-dependent-effect
same,Activity,HEK293 [16],Dose-dependent-effect
same,Activity,MCF7 [17],Dose-dependent-effect
same,Activity,MCF7 [18],Active
same,Activity,MCF7 [19],Active
same,Activity,MCF7 [20],inactive
same,Activity,BEAS-2B,Toxic
same,Activity,MCF7 [21],Active
same,Activity,MCF7 [22],Active
same,Activity,MCF7 [23],Active
same,Activity,MCF7 [24],Active
same,Activity,MCF7 [25],Active
same,Activity,MCF7 [26],Time-dependent-effect
same,Activity,[27],Toxic
COc1c(C)c(O)c(C(=O)C(C)C)c(O)c1Cc1c(O)c(C(=O)C(C)(C)C)c(O)c(C)c1OC,Activity,MCF7 [1],Active
same,Ratio,MCF7 [9],0.98
CCN(CC)CCCC(C)Nc1ccnc2cc(Cl)ccc12 (stereo unspecified),Activity,MCF7 [11],Active
same,Activity,MCF7 [12],inactive
COc1c(C)c(O)c(C(C)=O)c(O)c1Cc1c(O)c(C)c(O)c(C(=O)C(C)C)c1OC,Activity,MCF7 [1],Active
same,Ratio,MCF7 [9],0.71
COc1c(C)c(O)c(CC(C)C)c(O)c1Cc1c(O)c(CC(C)C)c(O)c(C)c1OC,Ratio,MCF7 [2],0.95
CCCCCc1c(O)c(C)c(OC)c(Cc2c(O)c(CCCCC)c(O)c(C)c2OC)c1O,Ratio,MCF7 [2],0.97
COc1c(Cc2c(O)c(C)c(O)c(C(=O)C(C)C)c2OC)c(O)c(C)c(O)c1C(=O)C(C)C,Ratio,MCF7 [2],0.92
CCC(=O)c1c(O)c(C)c(OC)c(Cc2c(O)c(C(=O)C(C)C)c(O)c(C)c2OC)c1O,Activity,MCF7 [1],Active
same,Ratio,MCF7 [9],0.86
COc1c(C)c(O)c(C(=O)C(C)(C)C)c(O)c1Cc1c(O)c(C(=O)C(C)(C)C)c(O)c(C)c1OC,Ratio,MCF7 [2],1.18
COc1c(C)c(O)c(C(=O)C(C)C)c(O)c1Cc1c(O)c(C)c(O)c(C(=O)C(C)C)c1OC,Activity,MCF7 [1],Active
same,Ratio,MCF7 [9],0.7
CCCCC(=O)c1c(O)c(C)c(OC)c(Cc2c(O)c(C)c(O)c(C(=O)CCCC)c2OC)c1O,Ratio,MCF7 [9],1.05
CCCCC(=O)c1c(O)c(C)c(OC)c(Cc2c(O)c(C(C)=O)c(O)c(C)c2OC)c1O,Activity,MCF7 [1],Active
same,Ratio,MCF7 [9],0.85
CCCCC(=O)c1c(O)c(C)c(OC)c(Cc2c(O)c(C(=O)CCCC)c(O)c(C)c2OC)c1O,Activity,MCF7 [1],Active
same,Ratio,MCF7 [2],0.86
